The source of these data is ChEMBL document CHEMBL1909046, “DrugMatrix in vitro pharmacology data”.

The nature of experiment [1]: DRUGMATRIX: Sodium/nucleoside co-transporter radioligand binding (ligand: nitrobenzylthioinosine). It counts as cell membranes, Cavia porcellus, Dunkin-Hartley, Cerebral cortex, Membrane. The conditions noted are these: Not Active = under 50% inhibition at 10 µM.
For a further experiment, the target named is T1, B2 bradykinin receptor (Homo sapiens, UniProt P30411). Also: in other assays of this panel Not Active means under 50% inhibition at 10 µM.
T1 sequence (P30411 whole entry): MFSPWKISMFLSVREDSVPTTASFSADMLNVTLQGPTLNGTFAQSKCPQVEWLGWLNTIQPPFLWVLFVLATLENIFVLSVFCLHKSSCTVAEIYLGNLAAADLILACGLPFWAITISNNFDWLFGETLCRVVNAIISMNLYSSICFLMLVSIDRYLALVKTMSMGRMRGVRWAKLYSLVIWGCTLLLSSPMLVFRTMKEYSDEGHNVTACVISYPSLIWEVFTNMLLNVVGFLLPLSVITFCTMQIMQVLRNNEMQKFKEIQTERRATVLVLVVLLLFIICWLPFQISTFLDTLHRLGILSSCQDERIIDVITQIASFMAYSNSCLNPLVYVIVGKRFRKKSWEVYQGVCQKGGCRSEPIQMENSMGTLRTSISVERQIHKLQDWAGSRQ
It counts as cell membranes, Membrane. Conditions: chem-1.

Another experiment deals with T2, Calcitonin receptor (Homo sapiens, UniProt P30988).
T2 sequence (P30988 whole entry): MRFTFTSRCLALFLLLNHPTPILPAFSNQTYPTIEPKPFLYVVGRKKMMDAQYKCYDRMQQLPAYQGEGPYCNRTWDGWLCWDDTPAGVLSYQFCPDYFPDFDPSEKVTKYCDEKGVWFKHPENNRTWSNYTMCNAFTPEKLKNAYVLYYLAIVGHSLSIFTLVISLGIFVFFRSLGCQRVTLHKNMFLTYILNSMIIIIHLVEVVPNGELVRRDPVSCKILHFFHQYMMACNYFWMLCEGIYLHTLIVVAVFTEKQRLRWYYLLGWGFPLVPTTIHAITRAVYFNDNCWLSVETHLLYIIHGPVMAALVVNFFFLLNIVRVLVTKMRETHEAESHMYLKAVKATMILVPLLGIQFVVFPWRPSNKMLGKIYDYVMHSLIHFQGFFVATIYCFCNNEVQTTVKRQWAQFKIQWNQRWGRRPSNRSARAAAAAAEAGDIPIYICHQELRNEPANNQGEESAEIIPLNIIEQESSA
It is filed as cell membranes, Membrane. The conditions noted are these: t47d.

A short description of experiment [2]: DRUGMATRIX: Serotonin (5-Hydroxytryptamine) 5-HT3 radioligand binding (ligand: [3H] GR-65630). It counts as cell membranes, Membrane. Conditions: hek293; Not Active = under 50% inhibition at 10 µM.
Experiment [3] concerns the target Sigma non-opioid intracellular receptor 1 (Homo sapiens, UniProt Q99720). As to the kind of experiment: DRUGMATRIX: Sigma1 radioligand binding (ligand: [3H] Haloperidol). It counts as cell membranes, Jurkat, Membrane. Conditions: Not Active = under 50% inhibition at 10 µM.
The target of another experiment is Vasopressin V1a receptor (Homo sapiens, UniProt P37288). It counts as cell membranes, Membrane. Conditions: hek293. Also: in other assays of this panel Not Active means under 50% inhibition at 10 µM.
Experiment [4] can be described thus: DRUGMATRIX: Phosphodiesterase PDE3 enzyme inhibition (substrate: [3H]cAMP + cAMP). It is filed as tissue-based, Homo sapiens. Conditions: platelet; Not Active = under 50% inhibition at 10 µM.
The next experiment addresses T3, Estrogen receptor (Homo sapiens, UniProt P03372).
T3 sequence (P03372 whole entry): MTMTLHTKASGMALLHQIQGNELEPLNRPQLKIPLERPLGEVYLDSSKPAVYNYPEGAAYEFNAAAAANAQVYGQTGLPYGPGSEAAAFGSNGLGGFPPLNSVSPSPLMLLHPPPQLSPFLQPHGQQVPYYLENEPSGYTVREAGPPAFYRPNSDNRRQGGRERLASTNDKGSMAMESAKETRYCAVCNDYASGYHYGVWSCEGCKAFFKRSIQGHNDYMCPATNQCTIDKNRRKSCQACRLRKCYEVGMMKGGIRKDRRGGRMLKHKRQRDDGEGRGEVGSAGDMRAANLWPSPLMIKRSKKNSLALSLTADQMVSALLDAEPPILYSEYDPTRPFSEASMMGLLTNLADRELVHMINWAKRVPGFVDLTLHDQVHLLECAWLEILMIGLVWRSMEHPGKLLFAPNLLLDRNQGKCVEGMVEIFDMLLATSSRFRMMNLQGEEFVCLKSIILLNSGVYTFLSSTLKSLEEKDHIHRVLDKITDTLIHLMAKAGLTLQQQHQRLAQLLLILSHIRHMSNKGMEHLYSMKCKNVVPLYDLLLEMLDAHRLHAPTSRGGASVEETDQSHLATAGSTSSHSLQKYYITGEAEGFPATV
Conditions: sf9.

Chain of Sigma non-opioid intracellular receptor 1 (Q99720 whole entry): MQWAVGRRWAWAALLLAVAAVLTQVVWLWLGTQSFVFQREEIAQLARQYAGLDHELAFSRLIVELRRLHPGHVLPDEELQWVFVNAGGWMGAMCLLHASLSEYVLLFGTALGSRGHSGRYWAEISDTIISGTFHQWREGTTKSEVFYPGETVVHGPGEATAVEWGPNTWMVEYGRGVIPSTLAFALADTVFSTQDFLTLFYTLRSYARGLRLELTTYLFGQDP
Chain of Vasopressin V1a receptor (P37288 whole entry): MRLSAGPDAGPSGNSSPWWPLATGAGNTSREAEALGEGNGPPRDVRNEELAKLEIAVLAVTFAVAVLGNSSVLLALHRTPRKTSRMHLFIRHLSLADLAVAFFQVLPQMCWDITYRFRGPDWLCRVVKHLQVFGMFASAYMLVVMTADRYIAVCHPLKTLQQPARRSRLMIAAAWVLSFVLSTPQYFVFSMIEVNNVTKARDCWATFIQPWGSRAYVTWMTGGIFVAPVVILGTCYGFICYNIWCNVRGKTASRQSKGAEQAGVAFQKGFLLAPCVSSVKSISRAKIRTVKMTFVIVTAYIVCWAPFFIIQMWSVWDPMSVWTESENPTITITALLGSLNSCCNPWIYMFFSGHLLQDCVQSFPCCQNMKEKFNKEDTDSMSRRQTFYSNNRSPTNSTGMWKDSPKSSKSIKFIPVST

Turning to `CCn1cc(C(=O)O)c(=O)c2cc(F)c(N3CCNC(C)C3)c(F)c21` (stereo not given) [LOMEFLOXACIN], the IC50 result (in experiment [1]; on B2 bradykinin receptor; on Calcitonin receptor; in experiment [2]; in experiment [3] (jurkat); against Vasopressin V1a receptor) was “Not Active” each time. Also, the IC50 result (in experiment [4]; against Estrogen receptor) was “Not Active” each time. For the same molecule, the Ki result in experiment [1], in experiment [2] and in experiment [4] was “Not Active” each time.

`CN1CCCC(CN2c3ccccc3Sc3ccccc32)C1` (stereo not given) [MEPAZINE]: the IC50 result is “Not Active” in experiment [1]; “Not Active” on B2 bradykinin receptor; “Not Active” at Calcitonin receptor; “Not Active” in experiment [2]; 180 nM in experiment [3] (read-out: IC50); “Not Active” at Vasopressin V1a receptor. Besides, the IC50 entry (in experiment [4]; at Estrogen receptor) was “Not Active” throughout. Besides, the Ki result in experiment [1] was “Not Active”; in experiment [2], “Not Active”; in experiment [3] (read-out: Ki), 76 nM; in experiment [4] it was “Not Active”.

With `Cc1cccc(C)c1NC(=O)C1CCCCN1C` (stereo not given) [MEPIVACAINE], the IC50 entry (in experiment [1]; against B2 bradykinin receptor; at Calcitonin receptor; in experiment [2]; in experiment [3] (jurkat); on Vasopressin V1a receptor) was “Not Active” throughout. The IC50 entry (in experiment [4]; against Estrogen receptor) was “Not Active” each time. Moreover, the inhibition constant Ki result in experiment [1], in experiment [2] and in experiment [4] was “Not Active” in each case.

Consider `CC(C)(C)NCC(O)COc1cccc2c1CC(O)C(O)C2` (stereo not given) [NADOLOL], for which the IC50 entry (in experiment [1]; against B2 bradykinin receptor; on Calcitonin receptor; in experiment [2]; in experiment [3] (jurkat); on Vasopressin V1a receptor) was “Not Active” in each case. In addition, the IC50 result (in experiment [4]; at Estrogen receptor) was “Not Active” each time. The Ki entry in experiment [1], in experiment [2] and in experiment [4] was “Not Active” in each case.

Consider `C[C@]12CC[C@H]3[C@@H](CCC4=CC(=O)CC[C@@H]43)[C@@H]1CC[C@@H]2O` [NANDROLONE], for which the IC50 entry (in experiment [1]; at B2 bradykinin receptor; at Calcitonin receptor; in experiment [2]; in experiment [3] (jurkat); on Vasopressin V1a receptor) was “Not Active” each time. Besides, the IC50 entry (in experiment [4]; on Estrogen receptor) was “Not Active” each time. Moreover, the Ki entry in experiment [1], in experiment [2] and in experiment [4] was “Not Active” in each case.

As for `C[C@@H]1C/C=C/C=C/C=C/C=C/[C@H](O[C@@H]2O[C@H](C)[C@@H](O)[C@H](N)[C@@H]2O)C[C@@H]2O[C@](O)(C[C@@H](O)C[C@H]3O[C@@H]3/C=C/C(=O)O1)C[C@H](O)[C@H]2C(=O)O` [NATAMYCIN], the IC50 result (in experiment [1]; against B2 bradykinin receptor; on Calcitonin receptor; in experiment [2]; in experiment [3] (jurkat); against Vasopressin V1a receptor) was “Not Active” each time. The IC50 entry (in experiment [4]; against Estrogen receptor) was “Not Active” throughout. Besides, the Ki entry in experiment [1], in experiment [2] and in experiment [4] was “Not Active” in each case.

For the molecule `CN(C)C(=O)Oc1cccc([N+](C)(C)C)c1.[Br-]` [NEOSTIGMINE BROMIDE], the IC50 result (in experiment [1]; against B2 bradykinin receptor; on Calcitonin receptor; in experiment [2]; in experiment [3] (jurkat); against Vasopressin V1a receptor) was “Not Active” each time. In addition, the IC50 entry (in experiment [4]; against Estrogen receptor) was “Not Active” each time. The Ki entry in experiment [1], in experiment [2] and in experiment [4] was “Not Active” in each case.

Take `NC(=O)c1cccnc1` [NIACINAMIDE]: the IC50 result (in experiment [1]; at B2 bradykinin receptor; at Calcitonin receptor; in experiment [2]; in experiment [3] (jurkat); against Vasopressin V1a receptor) was “Not Active” throughout. For the same molecule, the IC50 result (in experiment [4]; on Estrogen receptor) was “Not Active” each time. In addition, the Ki result in experiment [1], in experiment [2] and in experiment [4] was “Not Active” in each case.

With `CN1C(=O)CN=C(c2ccccc2)c2cc([N+](=O)[O-])ccc21` [NIMETAZEPAM], the IC50 entry (in experiment [1]; at B2 bradykinin receptor; on Calcitonin receptor; in experiment [2]; in experiment [3] (jurkat); at Vasopressin V1a receptor) was “Not Active” throughout. The IC50 result (in experiment [4]; against Estrogen receptor) was “Not Active” in each case. For the same molecule, the Ki entry in experiment [1], in experiment [2] and in experiment [4] was “Not Active” in each case.

Turning to `C[C@@H]1O[C@@H](O[C@H]2C[C@@H](O)[C@]3(CO)[C@H]4[C@H](O)C[C@]5(C)[C@@H](C6=CC(=O)OC6)CC[C@]5(O)[C@@H]4CC[C@]3(O)C2)[C@H](O)[C@H](O)[C@H]1O` [OUABAIN], the IC50 entry (in experiment [1]; against B2 bradykinin receptor; at Calcitonin receptor; in experiment [2]; in experiment [3] (jurkat); at Vasopressin V1a receptor) was “Not Active” throughout. Also, the IC50 entry (in experiment [4]; at Estrogen receptor) was “Not Active” in each case. Besides, the Ki result in experiment [1], in experiment [2] and in experiment [4] was “Not Active” in each case.

As to `COc1ccnc(C[S+]([O-])c2nc3ccc(OC(F)F)cc3[nH]2)c1OC` (stereo not given) [PANTOPRAZOLE], the IC50 result (in experiment [1]; at B2 bradykinin receptor; at Calcitonin receptor; in experiment [2]; in experiment [3] (jurkat); against Vasopressin V1a receptor) was “Not Active” throughout. Besides, the IC50 entry (in experiment [4]; on Estrogen receptor) was “Not Active” each time. For the same molecule, the Ki result in experiment [1], in experiment [2] and in experiment [4] was “Not Active” each time.

For the molecule `N=C(N)c1ccc(OCCCCCOc2ccc(C(=N)N)cc2)cc1` [PENTAMIDINE], the IC50 result (in experiment [1]; against B2 bradykinin receptor; on Calcitonin receptor; in experiment [2]; in experiment [3] (jurkat); at Vasopressin V1a receptor) was “Not Active” throughout. Besides, the IC50 result (in experiment [4]; on Estrogen receptor) was “Not Active” throughout. For the same molecule, the Ki entry in experiment [1], in experiment [2] and in experiment [4] was “Not Active” each time.

Consider `NNCCc1ccccc1` [PHENELZINE], for which the IC50 result (in experiment [1]; at B2 bradykinin receptor; at Calcitonin receptor; in experiment [2]; in experiment [3] (jurkat); against Vasopressin V1a receptor) was “Not Active” throughout. The IC50 entry (in experiment [4]; on Estrogen receptor) was “Not Active” throughout. For the same molecule, the Ki result in experiment [1], in experiment [2] and in experiment [4] was “Not Active” each time.

Consider `CCc1ccc(CCOc2ccc(CC3SC(=O)NC3=O)cc2)nc1` (stereo not given) [PIOGLITAZONE], for which the IC50 result (in experiment [1]; against B2 bradykinin receptor; at Calcitonin receptor; in experiment [2]; in experiment [3] (jurkat); against Vasopressin V1a receptor) was “Not Active” each time. Also, the IC50 result (in experiment [4]; against Estrogen receptor) was “Not Active” throughout. For the same molecule, the Ki result in experiment [1], in experiment [2] and in experiment [4] was “Not Active” throughout.

The term IC50 denotes the concentration needed to halve the response being measured. The Ki is a measure of affinity in units of concentration, obtained from inhibition or displacement.
